What was measured:
[1] = test system: advanced malignant melanoma or renal cell carcinoma; conditions: cited from earlier work
melanoma = conditions: Phase I; cited from earlier work
mouse tumor models = assay: Antitumor activity in mouse tumor models; format: in vivo
PD-L1 and TGFβ = assay: Two-step ELISA, simultaneous binding
advanced NSCLC = assay: Clinical study in 2L NSCLC, q2w dosing: response per RECIST v1.1; format: in vivo, human
[2] = test system: PD-L1 and TGFβ dependent signaling; assay: Inhibition of PD-L1 and TGFβ dependent signaling in vitro; format: cell-based
EMT-6 xenografts = assay: Mouse PK/Efficacy model from EMT-6 xenograft efficacy results; format: in vivo
Experimental: Experiments were also conducted to determine the efficacy of the anti-PD-L1/TGFβ Trap molecule in a tumor model. Efficacy results from EMT-6 xenografts were used to establish the PK/Efficacy model.
The model predictions are able to capture the tumor volume distributions. Conditional weighted residuals are normally distributed with a 0 mean and 1 variance without a trend. The PK/Efficacy model was then used to simulate tumor growth inhibition (TGI) using the human predicted concentration-time profiles at different doses.

TGFβ1 = TGFβ1 (Homo sapiens, UniProt P01137); conditions: binding of TGFβ1; cited from earlier work
Sequence of TGFβ1 (P01137 279-390 limits assumed, species assumed): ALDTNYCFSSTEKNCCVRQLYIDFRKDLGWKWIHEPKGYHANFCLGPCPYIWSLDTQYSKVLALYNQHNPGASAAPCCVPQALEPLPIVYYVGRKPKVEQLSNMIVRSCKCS

[3] = test system: scarring after eye surgery; conditions: Phase 3; cited from earlier work
[4] = PD-L1 high (≥80%) pts, 500 mg q2w
[5] = PD-L1 high (≥80%) pts, 1200 mg q2w
[6] = PK/Efficacy model parameter estimate, EMT-6 xenograft mice

GC1008: a human antibody specific for all isoforms of TGFβ
clinical efficacy ([1]; Phase I/II, patients): only limited clinical efficacy
safety ([1]; in vivo): safe and well tolerated

fresolimumab: monoclonal antibody targeting TGFβ1, 2 and 3
tumor response (melanoma): initial evidence of tumor response

anti-PD-L1/TGFβ Trap: bi-functional fusion protein: anti-PD-L1 antibody heavy chains fused via glycine-serine linker to extracellular domain of human TGFβRII; SEQ ID NO: 3 and 1
antitumor activity and survival versus anti PD-L1 antibody avelumab or TGFβ Trap control alone (mouse tumor models; mouse tumor models, preclinical data): strongly enhances antitumor activity and prolongs survival
antitumor activity (mouse tumor models; variety of mouse models): potent antitumor activity
simultaneous binding to PD-L1 and TGFβ (PD-L1 and TGFβ; FIG. 2): simultaneously binds to both PD-L1 and TGFβ
simultaneous binding to PD-L1 and TGFβ (PD-L1 and TGFβ; FIG. 2, listed as protein of the present disclosure): simultaneously bound to both PD-L1 and TGFβ
ORR, % (advanced NSCLC; All patients, 500 mg q2w): 20.0%
ORR, n (responders/patients) (advanced NSCLC; All patients, 500 mg q2w): 8/40
ORR, % (advanced NSCLC; All patients, 1200 mg q2w): 27.5%
ORR, n (responders/patients) (advanced NSCLC; All patients, 1200 mg q2w): 11/40
ORR, n (responders/patients) (advanced NSCLC; All patients, Total): 19/80
ORR, % (advanced NSCLC; All patients, Total (both doses)): 23.8%
ORR, % (advanced NSCLC; PD-L1+ (≥1%) pts, 500 mg q2w): 19.4%
ORR, n (responders/patients) (advanced NSCLC; PD-L1+ (≥1%) pts, 500 mg q2w): 6/31
ORR, % (advanced NSCLC; PD-L1+ (≥1%) pts, 1200 mg q2w): 40.7%
ORR, n (responders/patients) (advanced NSCLC; PD-L1+ (≥1%) pts, 1200 mg q2w): 11/27
ORR, % (advanced NSCLC; PD-L1+ (≥1%) pts, Total): 29.3%
ORR, n (responders/patients) (advanced NSCLC; PD-L1+ (≥1%) pts, Total): 17/58
ORR, % (advanced NSCLC; [4]): 33.3%
ORR, n (responders/patients) (advanced NSCLC; [4]): 2/6
ORR, % (advanced NSCLC; [5]): 85.7%
ORR, n (responders/patients) (advanced NSCLC; [5]): 6/7
ORR, % (advanced NSCLC; PD-L1 high (≥80%) pts, Total): 62.0%
ORR, n (responders/patients) (advanced NSCLC; PD-L1 high (≥80%) pts, Total): 8/13
partial responses (PR) (advanced NSCLC; across both dose levels (500 mg and 1200 mg q2w), 80 patients): 18
complete response (CR) (advanced NSCLC; at 1200 mg q2w): 1
PD-L1 and TGFβ dependent signaling [2]: inhibited
KC50 (EMT-6 xenografts; [6]): 55324.6 ng/mL
Kmax (EMT-6 xenografts; [6]): 2
KC50 (average plasma concentration for 50% of the maximal anti-tumor activity) (EMT-6 xenografts; estimated, EMT-6 xenografts): 55.3 µg/mL

B1: recombinant soluble TGFβRII: recombinant soluble extracellular domain of TGFβRII (protein, UniProt P37173 23-166, looked up)
extracellular domain: TIPPHVQKSVNNDMIVTDNNGAVKFPQLCKFCDVRFSTCDNQKSCMSNCSITSICEKPQEVCVAVWRKNDENITLETVCHDPKLPYHDFILEDAASPKCIMKEKKKPGETFFMCSCSSDECNDNIIFSEEYNTSNPDLLLVIFQ
modifications: extracellular domain
Kd (TGFβ1): 0.2 nM

B2: Lerdelimumab: an antibody specific for TGFβ2 (antibody, chains of the INN, looked up, V domains shown)
VH: EVQLVESGGGVVQPGRSLRLSCAASGFTFSSYGMHWVRQAPGKGLEWVAVIWYDGSNKYYADSVKGRFTISRDNSKNTLYLQMDSLRAEDTAVYYCGRTLESSLWGQGTLVTVSS
VL: SSELTQDPAVSVALGQTVRITCQGDSLRSYYASWYQQKPGQAPVLVIYGKNNRPSGIPDRFSGSSSGNTASLTITGAQAEDEADYYCNSRDSSSTHRGVFGGGTKLTVL
safety and efficacy at improving scarring [3]: safe but ineffective
